Laboratory results reported in patent publication US20110237629A1, “AMINO ACID ESTER PRODRUGS AND THE USE THEREOF” (Bayer Schering Pharma Aktiengesellschaft, priority 2008, published 2011).
Where a name gives a salt, the structure may show the parent alone.

Tests used:
[1] = Stability in buffer at various pH values; type: physicochemical
Protocol: 0.3 mg of the test substance is weighed into a 2 ml HPLC vial and 0.5 ml of acetonitrile or acetonitrile/DMSO (9:1) is added. The substance is dissolved by putting the sample vessel in an ultrasonic bath for about 10 seconds. Then 0.5 ml of the respective buffer solution is added, and the sample is again treated in the ultrasonic bath.
(Buffer) solutions employed:
pH 4: 1 liter of Millipore water is adjusted to pH 4.0 with 1 N hydrochloric acid;
pH 5: 0.096 mol of citric acid and 0.2 mol of sodium hydroxide ad 1 liter of water;
pH 7.4: 90.0 g of sodium chloride, 13.61 g of potassium dihydrogen phosphate and 83.35 g of 1 N sodium hydroxide solution are made up to 1 liter with water; this solution is then further diluted 1:10 with Millipore water.
pH 8: 0.013 mol of borax and 0.021 mol of hydrochloric acid ad 1 liter of water.
5 μl portions of the test solution are analyzed by HPLC for their content of unchanged test substance, and of basic mother substance of the formula (A) formed, every hour over a period of 24 hours at 37° C. The percentage areas of the appropriate peaks are used for quantification.
HPLC method for example 1:
Agilent 1100 with DAD (G1315B), binary pump (G1312A), autosampler (G1329A), column oven (G1316A), thermostat (G1330B); column: Kromasil 100 C18, 125 mm×4 mm, 5 μm; column temperature: 30° C.; eluent A: water+5 ml perchloric acid/liter, eluent B: acetonitrile; gradient: 0 min 90% A→2.0 min 70% A→18.0 min 70% A 20.0 min 10% A→21.0 min 10% A→23.0 min 90% A→26.0 min 90% A; flow rate: 2.0 ml/min;
HPLC method for example 3:
Agilent 1100 with DAD (G1314A), binary pump (G1312A), autosampler (G1329A), column oven (G1316A), thermostat (G1330A); column: Kromasil 100 C18, 125 mm×4 mm, 5 μm; column temperature: 30° C.; eluent A: water+5 ml perchloric acid/liter, eluent B: acetonitrile; gradient: 0 min 90% A→2.0 min 64% A→18.0 min 64% A→20.0 min 10% A→21.0 min 10% A→23.0 min 90% A→26.0 min 90% A; flow rate: 2.0 ml/min UV detection: 294 nm.
HPLC method for example 11:
Agilent 1100 with DAD (G1315B), binary pump (G1312A), autosampler (G1329A), column oven (G1316A), thermostat (G1330B); column: Kromasil 100 C18, 125 mm×4 mm, 5 μm; column temperature: 30° C.; eluent A: water+5 ml of perchloric acid/liter, eluent B: acetonitrile; gradient: 0 min 90% A→2.0 min 64% A→18.0 min 64% A→20.0 min 10% A→21.0 min 10% A→23.0 min 90% A→26.0 min 90% A; flow rate: 2.0 ml/min; UV detection: 294 nm.
HPLC method for example 14:
Agilent 1100 with DAD (G1315B), binary pump (G1312A), autosampler (G1329A), column oven (G1316A), thermostat (G1330B); column: Kromasil 100 C18, 250 mm×4 mm, 5 μm; column temperature: 30° C.; eluent A: water+5 ml of perchloric acid/liter, eluent B: acetonitrile; gradient: 0 min 90% A→7.0 min 52% A→18.0 min 52% A→20.0 min 10% A→21.0 min 10% A→23.0 min 90% A -4 26.0 min 90% A; flow rate: 2.0 ml/min; UV detection: 288 nm.
HPLC method for example 18:
Agilent 1100 with DAD (G1315A), binary pump (G1312A), autosampler (G1329A), column oven (G1316A), thermostat (G1330A); column: Kromasil 100 C18, 125 mm×4 mm, 5 μm; column temperature: 30° C.; eluent A: water+5 ml of perchloric acid/liter, eluent B: acetonitrile; gradient: 0 min 90% A→6.0 min 61% A→18.0 min 61% A→20.0 min 10% A→21.0 min 10% A→23.0 min 90% A→26.0 min 90% A; flow rate: 2.0 ml/min; UV detection: 294 nm.
The ratios of the peak areas (F) at the respective time points in relation to the peak areas at the starting time are shown in Table 3 for representative exemplary embodiments: […]

[2] = Determination of the solubility (suspension shaken 24 h at room temperature, HPLC of supernatant); type: physicochemical; settings: thermodynamic from solid
Protocol: The test substance is suspended in water or dilute hydrochloric acid (pH 4) or in 5% strength aqueous dextrose solution. This suspension is shaken at room temperature for 24 h. After ultracentrifugation at 224 000 g for 30 min, the supernatant is diluted with DMSO and analysed by HPLC. A two-point calibration plot of the test compound in DMSO is used for quantification.
Agilent 1100 with DAD (G1315A), quat. Pump (G1311A), autosampler CTC HTS PAL, degasser (G1322A) and column thermostat (G1316A); column: Phenomenex Gemini C18, 5 μm, 50 mm×2 mm; temperature: 40° C.; eluent A: water/phosphoric acid pH 2, eluent B: acetonitrile; flow rate: 0.7 ml/min; gradient: 0-0.5 min 85% A, 15% B; ramp 0.5-3 min 10% A, 90% B; 3-3.5 min 10% A, 90% B; ramp 3.5-4 min 85% A, 15% B; 4-5 min 85% A, 15% B.
Agilent 1100 with DAD (G1315A), quat. pump (G1311A), autosampler CTC HTS PAL, degasser (G1322A) and column thermostat (G1316A); column: VDSoptilab Kromasil 100 C18, 3.5 μm, 60 mm×2.1 mm; temperature: 30° C.; eluent A: water+5 ml of perchloric acid/liter, eluent B: acetonitrile; flow rate: 0.75 ml/min; gradient: 0-0.5 min 98% A, 2% B; ramp 0.5-4.5 min 10% A, 90% B; 4.5-6 min 10% A, 90% B; ramp 6.5-6.7 min 98% A, 2% B; 6.7-7.5 min 98% A, 2% B.
The solubilities of representative exemplary embodiments in dilute hydrochloric acid (pH 4) are shown in Table1: […]

[3] = saline or isotonic, 5% strength aqueous dextrose solution

| SMILES | % test substance after 4 h [F(t = 4 h) × 100/F(t = 0 h)] ([1]; pH 4, 37° C.) [%] | % test substance after 24 h [F(t = 24 h) × 100/F(t = 0 h)] ([1]; pH 4, 37° C.) [%] | % test substance after 4 h [F(t = 4 h) × 100/F(t = 0 h)] ([1]; pH 7.4, 37° C.) [%] | % test substance after 24 h [F(t = 24 h) × 100/F(t = 0 h)] ([1]; pH 7.4, 37° C.) [%] | solubility at 24 h ([2]; aqueous buffer, dilute hydrochloric acid (pH 4)) [µg/mL] | solubility at 24 h [2, 3] [µg/mL] |
| --- | --- | --- | --- | --- | --- | --- |
| N#Cc1c(N)nc(SCc2coc(-c3ccc(Cl)cc3)n2)c(C#N)c1-c1ccc(OC[C@@H](COC(=O)CN)OC(=O)CN)cc1 [Example 3, (2S)-3-{4-[2-Amino-6-({[2-(4-chlorophenyl)-1,3-oxazol-4-yl]methyl}sulphanyl)-3,5-dicyanopyridin-4-yl]phenoxy}propane-1,2-diyl bis(aminoacetate) dihydrochloride] | 99 | 99 | 93 | 67 | – | – |
| C[C@@H](N)C(=O)OC[C@H](COc1ccc(-c2c(C#N)c(N)nc(SCc3coc(-c4ccc(Cl)cc4)n3)c2C#N)cc1)OC(=O)[C@@H](C)N [Example 9, (2S)-3-{4-[2-Amino-6-({[2-(4-chlorophenyl)-1,3-oxazol-4-yl]methyl}sulfanyl)-3,5-dicyanopyridin-4-yl]phenoxy}propane-1,2-diyl(2R,2′R)-bis(2-aminopropanoate)dihydrochloride] | – | – | – | – | 535 | – |
| CC(C)[C@H](N)C(=O)OC[C@@H](COc1ccc(-c2c(C#N)c(N)nc(SCc3coc(-c4ccc(Cl)cc4)n3)c2C#N)cc1)OC(=O)[C@@H](N)C(C)C [Example 10, (2R)-3-{4-[2-Amino-6-({[2-(4-chlorophenyl)-1,3-oxazol-4-yl]methyl}sulphanyl)-3,5-dicyanopyridin-4-yl]phenoxy}propane-1,2-diyl(2S,2′S)-bis(2-amino-3-methylbutanoate)-dihydro-chloride] | – | – | – | – | – | > 500 |
| C[C@H](N)C(=O)OC[C@@H](COc1ccc(-c2c(C#N)c(N)nc(SCc3coc(-c4ccc(Cl)cc4)n3)c2C#N)cc1)OC(=O)[C@H](C)N [Example 11, (2R)-3-{4-[2-Amino-6-({[2-(4-chlorophenyl)-1,3-oxazol-4-yl]methyl}sulphanyl)-3,5-dicyanopyridin-4-yl]phenoxy}propane-1,2-diyl(2S,2′S)-bis(2-aminopropanoate)dihydrochloride] | 96 | 96 | 84 | 44 | – | – |
| N#Cc1c(N)nc(SCc2coc(-c3ccc(Cl)cc3)n2)c(C#N)c1-c1ccc(OC[C@@H](COC(=O)[C@@H](N)CCCCN)OC(=O)[C@@H](N)CCCCN)cc1 [Example 13, (2S)-3-{4-[2-Amino-6-({[2-(4-chlorophenyl)-1,3-oxazol-4-yl]methyl}sulphanyl)-3,5-dicyanopyridin-4-yl]phenoxy)propane-1,2-diyl(2S,2′S)-bis(2,6-diaminohexanoate)dihydrochloride] | – | – | – | – | – | 710 |
| N#Cc1c(N)nc(SCc2coc(-c3ccc(Cl)cc3)n2)c(C#N)c1-c1ccc(OC[C@@H](COC(=O)CCCN)OC(=O)CCCN)cc1 [Example 14, (2S)-3-{4-[2-Amino-6-({[2-(4-chlorophenyl)-1,3-oxazol-4-yl]methyl}sulphanyl)-3,5-dicyanopyridin-4-yl]phenoxy}propane-1,2-diyl bis(4-aminobutanoate)dihydrochloride] | 97 | 92 | 93 | 74 | – | 540 |
| N#Cc1c(N)nc(SCc2coc(-c3ccc(Cl)cc3)n2)c(C#N)c1-c1ccc(OC[C@@H](COC(=O)CCCCCN)OC(=O)CCCCCN)cc1 [Example 15, (2S)-3-{4-[2-Amino-6-({[2-(4-chlorophenyl)-1,3-oxazol-4-yl]methyl}sulphanyl)-3,5-dicyanopyridin-4-yl]phenoxy}propane-1,2-diyl bis(6-aminohexanoate) dihydrochloride] | – | – | – | – | – | 830 |
| CC(C)[C@H](N)C(=O)OC[C@H](COc1ccc(-c2c(C#N)c(N)nc(SCc3coc(-c4ccc(Cl)cc4)n3)c2C#N)cc1)OC(=O)[C@@H](N)C(C)C [Example 16, (2S)-3-{4-[2-Amino-6-({[2-(4-chlorophenyl)-1,3-oxazol-4-yl]methyl}sulphanyl)-3,5-dicyanopyridin-4-yl]phenoxy}propane-1,2-diyl(2S,2′S)-bis(2-amino-3-methylbutanoate)bis(trifluoroacetic acid) salt] | – | – | – | – | – | 250 |
| CC(C)C[C@H](N)C(=O)OC[C@H](COc1ccc(-c2c(C#N)c(N)nc(SCc3coc(-c4ccc(Cl)cc4)n3)c2C#N)cc1)OC(=O)[C@@H](N)CC(C)C [Example 17, (2S)-3-{4-[2-Amino-6-({[2-(4-chlorophenyl)-1,3-oxazol-4-yl]methyl}sulphanyl)-3,5-dicyanopyridin-4-yl]phenoxy}propane-1,2-diyl(2S,2′S)-bis(2-amino-4-methylpentanoate)bis(trifluoroacetic acid) salt] | – | – | – | – | – | 330 |
| C[C@@H](O)[C@H](N)C(=O)OC[C@H](COc1ccc(-c2c(C#N)c(N)nc(SCc3coc(-c4ccc(Cl)cc4)n3)c2C#N)cc1)OC(=O)[C@@H](N)[C@@H](C)O [Example 18, (2S)-3-{4-[2-Amino-6-({[2-(4-chlorophenyl)-1,3-oxazol-4-yl]methyl}sulfanyl)-3,5-dicyanopyridin-4-yl]phenoxy}propane-1,2-diyl(2S,3R,2′S,3′R)-bis(2-amino-3-hydroxybutanoate)bis(trifluoroacetic acid) salt] | 100 | 95 | 95 | 72 | – | 240 |
